Measurements published in patent publication US11306122B2, “Compositions and methods of inhibiting the binding of plasma IgG autoantibodies to serotonin 2A receptor” (United States Government As Represented By The Department …, priority 2019, dated 2022).
Numbered stars: 1 amine (or outer) side, 2 acyl side, 3 side chain; on linkers, the order of the positions; unused ones are H or OH. Bridge positions count the residues as written; N and C are the ends. Square brackets hold non-standard residues; d marks the D form. Peptide text beside a SMILES is read from it. X1 = CC(=O)NC(C(=O)OC(C(C)C)C(N[*:1])C(=O)[*:2])C(O)C(C)C; PhLac = O=C(O)[CH](O)Cc1ccccc1; NMeT = CN[CH](C(=O)O)[CH](C)O; NMeA = CN[CH](C)C(=O)O; NMeDha = C=C(NC)C(=O)O

What was measured:
[1] = system: mouse N2A neuroblastoma cells; test: Acute N2A neurite retraction induced by TBI patient 5-HT2A receptor autoantibodies; format: cell-based; conditions: for effect on TBI autoantibody-induced acute neurite retraction: M100907 250-500 nM, Y27632 10 μM, other concentrations as in Table 17; for % of autoantibody Neurite Retraction from TBI patients: 60 nM IgG of representative TBI patient; for effect on neurite retraction in TBI patient autoantibodies, Example 4: 10 μM Y27632, 1 μM YM25489, 1 μM U73122, 50 μM 2-APB; for % of 5-HT2A receptor Autoantibody Neurite Retraction: 60 nM TBI autoantibodies (alone 100%)
Experimental: Acute neurite retraction. Mouse N2A neuroblastoma cells were maintained in Dulbecco's minimal essential medium with 10% fetal calf serum. […] Neurite retraction represents average neurite length-shortening after five minutes exposure to TBI (5-HT2A receptor) autoantibodies (60-100 nM) in the presence or absence of various G-protein coupled receptor (GPCR) or signaling pathway antagonists.
A 60 nanomolar concentration of the IgG autoantibodies (e.g., 5-HT2A receptor autoantibodies) from a representative TBI patient was incubated with N2A cells in the presence or absence of the indicated concentration of the selective GPCR antagonist.
A 60 nanomolar concentration of 5-HT2A receptor autoantibodies from TBI patients was incubated with N2A cells in the presence or absence of the indicated concentration of Gq11/PLC-gamma/IP3R antagonist or RhoA/Rho kinase pathway inhibitor.
Neurovascular 5-hydroxytryptamine (serotonin) 2A receptor (5-HT2AR) autoantibodies were previously reported to function as long-acting agonists in diabetic angiopathy and subsets of major depression, Parkinson's disease or dementia. The 5-HT2A receptor is highly expressed in specific brain regions underlying cognition, perception and mood regulation. Long-lasting 5-HT2A receptor activation by circulating autoantibodies might contribute to pathophysiology via central and peripheral mechanisms. Since the risk or incidence of Parkinson's disease, depression and dementia increase following traumatic brain injury (TBI), circulating neurotoxic autoantibodies (e.g., 5HT2AR) were tested, characterized and compared with autoantibodies from TBI patients vs. diabetic subsets with or without neurodegenerative disorders. Plasma IgG autoantibodies (e.g., 5-HT2AR autoantibodies) were obtained by protein-A affinity chromatography in ten male TBI patients mean age 64 years old.

[2] = system: N2A mouse neuroblastoma cells; test: Acute N2A neurite retraction induced by schizophrenia plasma autoantibodies; format: cell-based; conditions: for % AutoAB-induced neurite retraction: 20 nM Pt 1 schizophrenia AutoAB; for % of AutoAB-induced neurite retraction: 40 nM SCZ IgG (N = 2), alone 100 ± 0%; for effect on schizophrenia autoantibody-induced neurite retraction: M100907 two-hundred nanomolar, Y27632 ten micromolar, Y254890 one micromolar
Experimental: (§1) Methods: Plasma from five older adults with chronic schizophrenia and eight age-matched patients having another neuropsychiatric, immune or metabolic disorder was subjected to Protein-A affinity chromatography to obtain IgG autoantibodies. Mean neurite retraction (5 minutes) or cell survival (24 hours) was determined in mouse N2A neuroblastoma cells incubated with autoantibodies in the presence or absence of specific antagonists of the Gq/11/PLC/IP3R signaling pathway, Gi-coupled, beta-arrestin2-directed pathways, or LY379268.
Acute neurite retraction assay. Percent of basal neurite length in N2A cells expressing one or more proximally-located dendrite-like process was determined after interval exposure to test substances (Zimering M B, J Endocrinol Diabetes. 2018; 5(2): 10).
A twenty nanomolar concentration of protein-A eluate fraction of plasma from Pt 1 with schizophrenia was incubated with N2A cells in the presence or absence of the indicated concentration of each Gq/11, GPCR antagonist. Results are the mean+/−SD of two experiments.
A forty nanomolar concentration of plasma autoantibodies (AutoAB) from Pt 1 or Pt, schizophrenia, was incubated in the presence or absence of the indicated concentration of RhoA/Rho kinase (ROCK) inhibitor, or individual antagonists of the Gq11/PLC/IP3R signaling pathway. […]

N2A cells [3] = test: Neurite retraction in N2A cells induced by 5-HT2AR agonists (DOI, serotonin); format: cell-based, mouse
Description: The mGlu2/3R agonist LY379268 was previously reported to cause positive allosteric modulation of the 5HT2AR protomer affinity at 5HT2AR/mGlu2R heteromers (González-Maeso J, et al., Nature. 2008; 452(7183):93-97).

[4] = system: N2A mouse neuroblastoma cells; test: N2A cell survival (MTT) promoted by schizophrenia/psychosis plasma autoantibodies; format: cell-based; conditions: LY379268 5 μM, pertussis toxin 100 ng/mL; for effect alone on N2A cell survival: without autoantibodies; for effect on autoantibody-induced N2A pro-survival/proliferation (words): M100907 500 nM, LY294002 20 μM, 24 hours
Experimental: as §1
N2A cell survival. MTT assay was performed 24 hours after incubation with test substances (Zimering M B, J Endocrinol Diabetes. 2018; 5(2): 10).
Serotonin 2A receptor activation leads to f3-arrestin-2-mediated desensitization and receptor internalization. However, β-arrestin-2 can also couple with diverse signaling pathways leading to enhanced cell proliferation and/or survival promotion.

N2A cells [5] = test: N2A cell loss (MTT) induced by TBI patient autoantibodies; format: cell-based, mouse; conditions: M100907 250 nM (eight of eight patients); prazosin 850 nM (n=5); one-fiftieth dilution; 24 hours
Experimental: Cell survival was determined with MTT assay.
Mouse neuroblastoma cell loss. N2A cell loss was quantified using an MTT (3-(4,5-dimethylthiazol-2-yl)-2,5-diphenyltetrazolium bromide) tetrazolium reduction assay after overnight incubation with autoantibodies from TBI patients (Zimering M B, Endocrinol Diabetes Metab J. 2019 August; 3(4) pii: 118. Epub 2019 Aug. 14).

[6] = system: mouse N2A neuroblastoma cells; test: Acute N2A neurite retraction induced by diabetic pathologies' IgG autoantibodies; format: cell-based; conditions: for Mean acute N2a neurite retraction (%): Pt 1 IgG one-fortieth dilution + 20 μg/mL peptide, IgG alone 100 + 0%; for effect on Patient 1 IgG autoantibody-induced N2A neurite retraction: short peptides at 20 μg/mL, pre-incubated 5 minutes, Q..N-18 dose series
Experimental: Methods: Plasma or serum from fifty-six older adults with (n=49) or without (n=7) type 2 diabetes was subjected to Protein-A affinity chromatography to obtain IgG autoantibodies. Binding to a synthetic 18-meric linear synthetic peptide (SEQ ID NO: 1) corresponding to the second extracellular loop of the 5-hydroxytryptamine 2A receptor was tested in a 1/40th or higher dilution of the protein-A eluates. Mean acute neurite retraction (5 minutes) or cell survival (16-24 hours) was determined in mouse N2A neuroblastoma cells incubated with IgG autoantibodies in the presence or absence of three short, linear overlapping peptides comprising the second extracellular loop of the human 5-hydroxytryptamine 2A receptor (SEQ ID NOs: 2, 3 and 4).
N2A Acute Neurite Retraction assay. Acute neurite retraction assay was performed as described in Hu G, et al. Diabetes Care 2007; 30(4): 842-847.
Epitope mapping of region within 5-HT2A receptor, linear synthetic 5-HT2A receptor peptide targeted by autoantibodies. Next an epitope analysis was performed to determine the subregion within the 5-HT2A receptor second extracellular domain that binds to the type 2 diabetes pathologies' autoantibodies. Three overlapping short peptides were synthesized (SEQ ID NOs: 2, 3, and 4). N2a cells expressing neurites were pre-incubated with each of the peptides separately (for 5 minutes) prior to the addition of Patient 1, […] hypertension IgG autoantibodies to determine which of the three peptides could compete for binding to the test diabetic pathologies' autoantibodies causing inhibition of IgG autoantibody-induced neurite retraction.
The indicated concentration of the Q . . . […] Acute N2A neurite retraction was assessed after 5 minutes.

[7] = Patient 1 DM refractory hypertension autoantibody, one sixtieth dilution, 5 minutes, 0 μg/mL peptide: 90 + 5%

COc1ccccc1Oc1c(NS(=O)(=O)c2ccc(C(C)(C)C)cc2)nc(-c2ncccn2)nc1OCCO [Bosentan]
effect on TBI autoantibody-induced acute neurite retraction [1]: little or no significant protective effect
% of autoantibody Neurite Retraction from TBI patients ([1]; antagonist 10 μM): 80%
% AutoAB-induced neurite retraction ([2]; antagonist 10 μM): 94 ± 7%

COc1cc(CC(C)N)c(OC)cc1I (centres unmarked) [DOI, 1-[2,5-dimethoxy-4-iodophenyl]-2-aminopropane]
concentration of DOI needed to evoke 25-30% neurite inhibition (N2A cells [3]; in the absence of LY379268): 10 µM
concentration of DOI needed to evoke 25-30% neurite inhibition (N2A cells [3]; in the presence of (10 μM) LY379268): 5 µM
peak neurite retraction (N2A cells [3]; saturating concentration, 20 μM): 40%

O=C(c1ccc(F)cc1)C1CCN(CCn2c(=O)[nH]c3ccccc3c2=O)CC1 [Ketanserin]
effect on TBI autoantibody-induced acute neurite retraction [1]: substantially blocked
% of autoantibody Neurite Retraction from TBI patients ([1]; antagonist 1 μM): 26%
% of autoantibody Neurite Retraction from TBI patients ([1]; antagonist 2 μM): 18%
% AutoAB-induced neurite retraction ([2]; antagonist 500 nM): 43 ± 11%

N[C@@]1(C(=O)O)CO[C@H]2[C@H](C(=O)O)[C@H]21 [LY379268]
mean level of neurite retraction in the presence of LY379268 ([2]; 10 μM LY379268, n=12, IgG alone 52±7%): 74±10%
effect alone on neurite retraction ([2]; 5-101.1M concentrations (so in the source), without autoantibodies): no effect
Mean N2A neurite retraction, Pt IgG + LY379268 ([2]; 7.5-10 μM LY379268, mean [IgG] 17 ± 6 nM, N = 12 patients, five minutes, Pt IgG alone 52 ± 7%): 74 ±10%^∧
IgG autoantibody concentration giving 50% inhibition of N2A neurite outgrowth in the presence of LY379268 ([2]; 10 micromolar LY379268, Pt 1 SCZ IgG, without LY379268: one microgram per milliliter (~7 nM)): ~0.5 microgram per milliliter
IgG autoantibody concentration giving 50% inhibition of N2A neurite outgrowth in the presence of LY379268, molar ([2]; 10 micromolar LY379268, Pt 1 SCZ IgG, without LY379268 ~7 nM): 3.5 nM
effect alone on N2A cell survival [4]: no effect
effect on autoantibody-induced N2A pro-survival/proliferation (words) [4]: significantly blocked

CCCCc1nc(Cl)c(CO)n1Cc1ccc(-c2ccccc2-c2nn[nH]n2)cc1 [Losartan]
% AutoAB-induced neurite retraction ([2]; antagonist 10 μM): 72 ± 8%

NCCOB(c1ccccc1)c1ccccc1 [Peptide 2-APB]
effect on neurite retraction in TBI patient autoantibodies, Example 4 [1]: significantly blocked
% of 5-HT2A receptor Autoantibody Neurite Retraction ([1]; inhibitor 25 μM): 0%
% of AutoAB-induced neurite retraction ([2]; inhibitor 50 μM): 17 ± 1.9%

COc1ccc2c(c1)CC[C@@H]1[C@@H]2CC[C@]2(C)[C@@H](NCCCCCCN3C(=O)C=CC3=O)CC[C@@H]12 [Peptide U73122]
effect on neurite retraction in TBI patient autoantibodies, Example 4 [1]: significantly blocked
% of 5-HT2A receptor Autoantibody Neurite Retraction ([1]; inhibitor 1 μM): 10%
% of AutoAB-induced neurite retraction ([2]; inhibitor 1 μM): 28 ± 15%

C[C@@H](N)[C@H]1CC[C@H](C(=O)Nc2ccncc2)CC1 [Peptide Y27632]
effect on schizophrenia autoantibody-induced neurite retraction [2]: completely prevented
% of AutoAB-induced neurite retraction ([2]; inhibitor 10 μM): 0 ± 0%

COc1cc2nc(N3CCN(C(=O)c4ccco4)CC3)nc(N)c2cc1OC [Prazosin]
effect on accelerated N2A cell death/loss by TBI autoantibodies (N2A cells [5]): much less protective effect
% AutoAB-induced neurite retraction ([2]; antagonist 1 μM): 72 ± 10%

Cc1cc(NC(=O)Nc2ccc3c(ccn3C)c2)sn1 [SB204741]
effect on TBI autoantibody-induced acute neurite retraction [1]: no significant protective effect
% of autoantibody Neurite Retraction from TBI patients ([1]; antagonist 1 μM): 70%
% AutoAB-induced neurite retraction ([2]; antagonist 1 μM): 100 ± 0%

C=C1C(=O)NC(C)C(=O)N(C)C(C)C(=O)NC(C(OC(=O)C(NC(C)=O)C(O)C(C)C)C(C)C)C(=O)N(C)C(C(C)OC)C(=O)OC(C)C(NC(C)=O)C(=O)OC(Cc2ccccc2)C(=O)N1C (centres unmarked) [YM254890] (Ac-T[PhLac][NMeDha]A[NMeA][X1][NMeT](Me); ester 1-C; configuration not given here)
effect on neurite retraction in TBI patient autoantibodies, Example 4 [1]: significantly blocked
% of 5-HT2A receptor Autoantibody Neurite Retraction ([1]; inhibitor 1 μM): 11%
effect on schizophrenia autoantibody-induced neurite retraction [2]: completely prevented
% of AutoAB-induced neurite retraction ([2]; inhibitor 1 μM): 0 ± 0%

Pertussis toxin
effect alone on N2A cell survival [4]: no effect
effect on autoantibody-induced N2A pro-survival/proliferation (words) [4]: significantly blocked
effect on autoantibody-induced N2A pro-survival/proliferation (words) ([4]; listed as pertussis toxin): blocked

QDDSKVF [Peptide 3, short overlapping peptide of 5-HT2A receptor second extracellular loop]
Mean acute N2a neurite retraction (%) ([6]; 5 minutes): 87 + 19%
effect on Patient 1 IgG autoantibody-induced N2A neurite retraction [6]: no significant effect

QDDSKVFKEGSCLLADDN [Peptide 1]
acute N2A neurite withdrawal, autoantibody + Q...N-18 at 3 μg/mL [6, 7]: 25 + 7%
acute N2A neurite withdrawal, autoantibody + Q...N-18 at 5 μg/mL [6, 7]: 0 + 0%
effect on Patient 1 IgG autoantibody-induced N2A neurite retraction [6]: dose-dependently inhibited
Half-maximal inhibition of autoantibody-induced acute neurite retraction ([6]; sixty nanomolar protein-A eluate of Patient 1 plasma): 2 µg/mL
IC50 ([6]; sixty nanomolar protein-A eluate of Patient 1 plasma, read-out: Half-maximal inhibition of autoantibody-induced acute neurite retraction, corresponding molar concentration): ~1000 nM

VFKEGSC [Peptide 4, short overlapping peptide of 5-HT2A receptor second extracellular loop]
Mean acute N2a neurite retraction (%) ([6]; 5 minutes): 88 + 13%
effect on Patient 1 IgG autoantibody-induced N2A neurite retraction [6]: no significant effect
